The results in this text go back to PMC11029812, “Liver-targeted polymeric prodrugs delivered subcutaneously improve tafenoquine therapeutic window for malaria radical cure” (Science Advances, 2024).

The subject of series [1] is P. berghei. Briefly: P. berghei luciferase and blood parasitemia model of causal prophylaxis. In kind it is in vivo. To be noted: for Mice survived: 31 days, n = 5. The protocol:
Efficacy studies in the P. berghei mouse model of causal prophylaxis were conducted at the Walter Reed Army Institute of Research, Experimental Therapeutics Branch as previously described ([46]).
Luciferase-expressing P. berghei ANKA sporozoites were obtained from laboratory-reared female Anopheles stephens mosquitoes as previously described ([46]). Sporozoites were recovered by the method of Li et al. ([62]) and quantitated using a hemocytometer. Sporozoites isolated from the same batch of mosquitoes were inoculated into mice on the same day to control biological variability in sporozoite preparations. Each animal was inoculated IV in the tail vein with approximately 10,000 sporozoites suspended in 0.1-ml volume on day 0.
Age-matched, 40 young adult (7-week-old) female C57BL/6 albino mice were purchased from Charles River Laboratories (Frederick, MD). On arrival, animals were acclimated for 7 days in quarantine. Mice were housed and maintained at a temperature range of 64° to 79°F, 34 to 68% relative humidity, and a 12-hour light/dark cycle. Food and water were provided ad libitum. Animals were fed a standard rodent maintenance diet. All animal use, care, and handling was conducted under an IACUC-approved animal use protocol in an Association for Assessment and Accreditation for Laboratory Animal Care International (AAALACi)–accredited facility with a Public Health Services Animal Welfare Assurance and in compliance with the Animal Welfare Act and other federal statutes and regulations relating to laboratory animals.
TQ was dissolved at a stock concentration of 1 mg/ml in 25% hydroxy-β-cyclodextrin acidified to pH 5 with acetic acid and diluted in DPBS for final dosing solutions. Polymers for parenteral administration were prepared in DPBS at the final dosing concentrations. All drug concentrations were calculated per the free base molecular weights of TQ. TQ parent compounds were administered intragastrically via an intragastric feeder tube. Vehicle groups (0.1 ml of DPBS) and polymer groups were administered SC in the right flank. Free TQ, vehicle, and polymers were given as a single dose on day −1. In this model, the pSVCTQ doses studied were 5.0, 7.5, or 10 mg/kg TQ equivalent.
Whole-body IVIS imaging of bioluminescence activity from luciferase-expressing P. berghei–infected mice was performed using a PerkinElmer IVIS Spectrum. Mice were evaluated at 24, 48, and 72 hours after sporozoite inoculation to determine liver- and blood-stage malaria infection. Mice received luciferin (150 mg/kg, Gold Biotechnology, St. Louis, MO) intraperitoneally in a maximal volume of 150 μl. Three minutes after luciferin administration, the mice were anesthetized with inhaled isoflurane and positioned ventral side up in the IVIS Spectrum on a 37°C platform. The mice continued to receive isoflurane through nose cone delivery. The camera exposure times used were 1 or 5 min for the 24-, 48-, and 72-hour time points with f-stop = 1, and the large binning setting was chosen. Quantitative analysis of bioluminescence emitted from whole bodies or […] (ROI) were determined by measuring the luminescence signal intensity in photons per second using the ROI settings of the Living Image 3.0 software. The ROI, expressed in total flux of photons, was set to measure the abdominal area at the location of the liver from whole-body imaging ([62]). The data were generally found to fit a normal distribution. Means and SDs of photon measurement were calculated.
On days 5 to 31 after infection, mice were analyzed for blood-stage infections by quantitation of malaria parasites in erythrocytes by flow cytometry. Blood (3 μl) from the mouse tail was collected directly into 0.3 ml of 1% heparinized isotonic buffer (PBS saline). After addition of 1 ml of 0.04% of glutaraldehyde for fixation, the samples were incubated at 4°C for 60 min. Cells were centrifuged at 450g for 5 min. […]

Series [2] has as its system G6PD-deficient huRBCs. Briefly: Hemotoxicity in humanized G6PD deficiency mouse model. The class given is in vivo, human RBCs engrafted in NOD/SCID mice. The method, then: Following procedures as previously published ([46]), hemotoxicity studies using huRBC engraftments were conducted in mice.
Female (8 to 9 weeks) NOD.CB17-Prkdcscid/J [nonobese diabetic severe combined immunodeficient (NOD/SCID)] mice were purchased from The Jackson Laboratory (Bar Harbor, ME). The animals were housed in a cage maintained in a specific pathogen–free animal facility and were acclimated for 1 week in the facility before initiation of experimental procedures. Sterile food and water were provided ad libitum throughout the study as previously described ([64]). All animal studies were performed under IACUC-approved protocols and adhere to the principles stated in the Guide for the Care and Use of Laboratory Animals ([100]).
Polymer solutions for SC administration were prepared in DPBS at the final dosing concentrations. All drug concentrations were calculated per the free base molecular weights of TQ. The TQ parent compound was administered intragastrically via an intragastric feeder tube. Polymers and vehicle were administered SC in the right flank. TQ, pSVCTQ, and vehicle were given as a single dose on day 0. In this model, the TQ dose studied was 10 mg/kg; pSVCTQ was tested at doses of 2.5, 5.0, or 10 mg/kg TQ equivalent.
The percentage of huRBCs at the end of this period was analyzed by flow cytometry to evaluate glycophorin A (huRBCs) and Ter119 (mouse RBCs) circulating in peripheral blood. […] The G6PD-deficient huRBC NOD/SCID mice were dosed with pSVCTQ or parent drug prepared as described above, with three to four mice per group. On days 4 and 7 following dosing, huRBC levels were assessed again by flow cytometry (glycophorin^+Ter119^−), along with the percentage of murine reticulocytes (CD71^+Ter119) as an additional marker of hemolytic toxicity. Mice were euthanized on day 7 following initiation of treatment.
Microsoft Excel and GraphPad Prism were used throughout the PK analysis to process the data, calculate pharmacokinetic parameters, and yield statistical information. A linear regression model was produced using the least squares fitting method with 1/x^2 scaling for the assay calibrators. […] For the G6PD deficiency model, data analysis was performed using GraphPad Prism (GraphPad Software). […] An F test comparing the two dose-response curves was also run. For all other work, a combination of Microsoft Excel and GraphPad Prism was used.

“Also recorded” adds a separate entry of the source.

For the substance p(GalNAc-MA-co-SVCTQ-MA) [pSVCTQ], the Mice survived in series [1] (5 mg/kg SC, single dose day −1) is 2/5; in series [1] (7.5 mg/kg SC, single dose day −1) it was 4/5; in series [1] (10 mg/kg SC, single dose day −1) it was “All mice survived”; in series [1] (10 mg/kg SC, single dose day −1, listed as SVCTQ polymer) it was 5/5. Moreover, the Blood parasitemia suppression result in series [1] (5 mg/kg TQ equivalent SC, single dose day −1) was “partial suppression of parasitemia”. Moreover, in series [1] (10 mg/kg TQ equivalent SC, single dose day −1), the “Causal prophylaxis (complete parasite suppression)” value is 100%. Further, the “IVIS signal during days 1 to 3” value in series [1] (10 mg/kg single dose day −1, pSVCTQ SC, TQ oral) is listed as “completely suppressed”. In series [1] (P. berghei prophylactic model, single dose day −1), the “Activity compared to oral TQ (based on the TQ equivalent dose)” value is given as “approximately twofold; also recorded: approximately twice”. Besides, the “Dose resulting in 50% hemolysis (TD50)” value in series [2] (curve fit of Fig. 4B, single dose, pSVCTQ SC, TQ oral, day 7) stood at 11.2 mg/kg. Also, the “Reduction of hemotoxicity compared to oral TQ” value in series [2] (from median effective doses) is listed as “greater than twofold”. In addition, in series [2] (single dose day 0, pSVCTQ SC, TQ oral, A− G6PD-deficient donor), the “Median effective dose (dose that results in 50% huRBC loss by day 7 relative to vehicle control)” value was 11.4 mg/kg.
